Source: publication PMC6015222, “Targeting Phosphopeptide Recognition by the Human BRCA1 Tandem BRCT Domain to Interrupt BRCA1-Dependent Signaling” (Cell Chemical Biology, 2018)

Legend:
BRCA1 tBRCT = target: T1, BRCA1 tBRCT (Homo sapiens, UniProt P38398); experiment: Competitive MST: inhibition of BACH1 phosphopeptide binding to BRCA1 tBRCT; settings: MST, BACH1 phosphopeptide vs BRCA1 tBRCT; mean ± SD of three experiments; NB, no binding
T1 construct: BRCA1 tBRCT residues 1646-1859; made in house; host or cells: E. coli BL21(DE3)
Description: Protein domains used in the assay were labeled with NT-647-NHS fluorescent dye using the Monolith NT™ Protein Labeling Kit (NanoTemper Technologies). Assays were carried out in 20mM Tris buffer, pH 7.4, with 200mM NaCl, 0.05% Tween-20 and 2mM DTT. For the direct binding assay, 10μl of labeled protein at a final concentration of 20nM was mixed with 10μl of test compound and incubated on ice for 10 min. For the competitive assay, 10μl of labeled protein at a final concentration of 20nM was mixed with 2μM cognate peptide substrate at the EC80 concentration determined by prior titration using a 16-point serial dilution by direct-binding MST. For both assays, samples prepared as above were centrifuged at 15000 rpm at 4°C for 10 min and 4μl of the supernatant was loaded into premium glass capillaries (NanoTemper Technologies). MST analysis was performed at MST power of 40% and LED power of 80%, at 22°C temperature using a Monolith NT.115 (NanoTemper Technologies). An initial “Capillary Scan” was performed to scan for fluorescence across the length of the capillary tray to determine the exact position of each capillary before the MST measurement was started. Test compounds were assayed at 16 different concentrations by serial dilution, and data were analysed using NanoTemper analysis software. Kd values were determined using “T-jump + Thermophoresis” settings. The change in thermophoresis between different experimental conditions was expressed as the change in the normalized fluorescence (ΔFnorm), which is defined as Fhot/Fcold (F-values correspond to average fluorescence values between defined areas in the curve under steady-state conditions under control (Fcold) or experimental (Fhot) conditions. Titration of the non-fluorescent ligand causes a gradual change in thermophoresis, which is plotted as ΔFnorm to yield a binding curve, which was then fitted to derive binding constants.

[1] = target: T2, BRCA1 tBRCT / BACH1 unimolecular FRET biosensor (Homo sapiens, UniProt P38398); experiment: Unimolecular FRET biosensor assay in HEK293 cells (sensitized emission, acceptor photobleaching); type: cell-based; settings: 100 μM, 24 hr, 16 Gy
T2 construct: the BRCA1 tBRCT domain (aa 1643-1862); expressed in transfected cells
Description: HEK293 cells expressing the stably integrated FRET sensor in a tetracycline-inducible system were used. 3.5x10^5 cells/35mm dish were seeded in Matrigel coated plates and expression was induced using doxycycline (1μg/ml) for 48 h. Cells were incubated with compounds for 24 h in serum containing media at 100μM final concentration with 0.5% DMSO. Where indicated, mCherry-BRCA1 tBRCT constructs were transiently transfected in a 4.5:1 ratio of Fugene:DNA and incubated in serum-containing media for 24 h (Fugene HD transfection reagent, Promega). Two h after 16 Gy IR, cells were washed in 1x PBS (pH 7.4) and fixed in 4% PFA at room temperature (RT) for 10’. Cells were mounted with Mowiol (without anti-fade) before imaging. The following excitation and emission wavelengths were used: Ex 402nm / Em 457nm for Tag-BFP; Ex 483nm / Em 506nm for Tag-GFP2 and Ex 594nm / Em 610nm for mCherry. […] Images acquired as noted below were quantified using HCS studio 2.0 (Thermo Fisher Scientific) to define nuclear morphology and average nuclear intensities.
For sensitized emission FRET measurements, images were acquired using a Zeiss epifluorescence microscope with Apotome using a 40x oil objective. […] Corrections for the extent of spectral cross-talk were calculated and applied as follows ([Müller et al., 2013]). […]

T1 sequence (P38398 1646-1859): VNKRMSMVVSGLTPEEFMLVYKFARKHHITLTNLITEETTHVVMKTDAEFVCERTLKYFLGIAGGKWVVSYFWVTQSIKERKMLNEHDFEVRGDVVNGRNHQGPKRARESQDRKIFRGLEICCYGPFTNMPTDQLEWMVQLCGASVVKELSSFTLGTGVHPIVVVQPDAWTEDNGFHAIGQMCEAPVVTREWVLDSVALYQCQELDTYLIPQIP
T2 sequence (P38398 1643-1862): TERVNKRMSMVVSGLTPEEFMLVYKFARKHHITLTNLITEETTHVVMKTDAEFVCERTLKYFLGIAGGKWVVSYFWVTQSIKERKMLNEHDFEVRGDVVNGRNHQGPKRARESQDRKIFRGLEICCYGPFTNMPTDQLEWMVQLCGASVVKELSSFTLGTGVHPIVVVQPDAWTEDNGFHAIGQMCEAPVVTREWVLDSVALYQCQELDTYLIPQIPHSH

SMILES: O=C(c1ccc2nc(-c3ccccc3)[nH]c2c1)N1CCN(Cc2ccccc2F)CC1 [Bractoppin, (4-(2-fluorobenzyl)piperazin-1-yl) (2-phenyl-1H-benzo[d]imidazol-6-yl) methanone]
- IC50 (BRCA1 tBRCT): 74 nM
- effect on FRET efficiency of the biosensor [1]: inhibits FRET
